We go through seven molecules from patent US11920158B2, “Cardiomyocyte maturation” (The Council of the Queensland Institute of Medical Research, priority 2016, dated 2024).

Data set [1] has as its system human cardiac organoids (hCOs). Kind of data set: Force analysis of hCO in Heart-Dyno (pole deflection, contraction parameters). The class given is cell-based. The settings on record: for EC50: read-out: calcium EC50 for force of contraction. The procedure: CTRL medium: α-MEM GlutaMAX (ThermoFisher Scientific), 10% fetal bovine serum (FBS) (ThermoFisher Scientific), 200 μM L-ascorbic acid 2 phosphate sesquimagnesium salt hydrate (Sigma) and 1% Penicillin/Streptomycin (ThermoFisher Scientific). For each hCO, 5×10^4 cardiac cells in CTRL medium were mixed with collagen I to make a 3.5 μl final solution containing 2.6 mg/ml collagen I and 9% Matrigel. The bovine acid-solubilized collagen I (Devro) was first salt balanced and pH neutralized using 10×DMEM and 0.1 M NaOH, respectively, prior to mixing with Matrigel and cells. The mixture was prepared on ice and pipetted into the Heart-Dyno. The Heart-Dyno was then centrifuged at 100×g for 10 s to ensure the hCO form halfway up the posts. The mixture was then gelled at 37° C. for 30 min prior to the addition of CTRL medium to cover the tissues (150 μl/hCO). The Heart-Dyno design facilitates the self-formation of tissues around in-built PDMS exercise poles (designed to deform ˜0.07 μm/μN). The medium was changed every 2-3 days (150 μl/hCO). hCOs were cultured in CTRL medium for formation and then changed to serum-free media as indicated for experiments. For all screening experiments, after hCO formation, hCOs were cultured in serum-free conditions comprising DMEM without glucose, glutamine and phenol red (ThermoFisher Scientific) supplemented with 4% B27 (with or without insulin) (ThermoFisher Scientific), 1% GlutaMAX (ThermoFisher Scientific), 200 μM L-ascorbic acid 2 phosphate sesquimagnesium salt hydrate and 1% Penicillin/Streptomycin (ThermoFisher Scientific). […] A timeline of the finalized hCO fabrication, culture and maturation protocol can be found in FIG. 1m.
The pole deflection was used to approximate the force of contraction. A Leica DMi8 inverted high content Imager was used to capture a 10 s time-lapse of each hCO contracting in real time at 37° C. Custom batch processing files were written in Matlab R2013a (Mathworks) to convert the stacked TIFF files to AVI, track the pole movement (using vision.PointTracker), determine the contractile parameters, produce a force-time figure, and export the batch data to an Excel (Microsoft) spreadsheet.
Custom batch processing files were written in Matlab R2013a (Mathworks) to convert the stacked TIFF files to AVI, track the pole movement (using vision.PointTracker), determine the contractile parameters, produce a force-time figure, and export the batch data to an Excel (Microsoft) spreadsheet. The follow formulae were used to determine the contractile force at each time-point. Maximum deflection at the end of a rectangular cantilever fixed at one end with force applied at a specified distance:
Based on the parameters of our system: E=1500 kPa, b=0.5 mm, h=0.2 mm, L=0.7 mm, and x=0.35 mm (hCO half-way up the poles), k=14 μN/μm.

Data set [2] has as its system human cardiac organoids (hCOs). Briefly: hCO tissue viability (viable, intact and functional tissues). The class given is cell-based. The settings on record: prolonged presence within the maturation media.
Data set [3] deals with hPSC-CMs in human cardiac organoids (hCOs). Briefly: Whole-mount immunostaining and image analysis of hCO (Ki-67, pH3, MLC2v, activated β-catenin, 8-OxoG, pATM, α-actinin, DNA). The class given is cell-based. The procedure:
hCOs were fixed for 60 min with 1% paraformaldehyde (Sigma) at room temperature and washed 3× with PBS, after which they were incubated with primary antibodies (Table 1) in Blocking Buffer, 5% FBS and 0.2% Triton-X-100 (Sigma) in PBS overnight at 4° C. Cells were then washed in Blocking Buffer 2× for 2 h and subsequently incubated with secondary antibodies (Table 1) and Hoescht (1:1000) overnight at 4° C. They were washed in Blocking Buffer 2× for 2 h and imaged in situ or mounted on microscope slides using Fluoromount-G (Southern Biotech). For screening hCO were imaged using a Leica DMi8 high content imaging microscope for in situ imaging. Custom batch processing files were written in Matlab R2013a (Mathworks) to remove the background, calculate the image intensity, and export the batch data to an Excel (Microsoft) spreadsheet. For more detailed images an Olympus IX81 confocal microscope or a Nikon Diskovery Spinning Disk confocal microscope for mounted imaging. For cell cycle analysis experiments 3 random fields of view were imaged and manually quantified for proliferation. These were added together to calculate the percentage of hPSC-CM proliferation in each hCO.

Data set [4] has as its system human cardiac organoids (hCOs). Briefly: ELISAs for lactate dehydrogenase and cardiac troponin I (cell viability of hCO). The class given is cell-based. The conditions noted are these: addition of palmitate, serum-free culture of hCOs.
Data set [5] concerns adult cardiac muscle. The conditions noted are these: ref (23), read-out: calcium EC50; cited from earlier work.

Like-named read-outs stand apart in the source and are kept apart here.

For `COc1cc(N)c(Cl)cc1C(=O)NC1CCN(CCCOc2ccc(F)cc2)CC1OC` (centres unmarked) [cisapride, reference compound], the relaxation time entry in data set [1] (hCO, pro-arrhythmogenic compound with hERG toxicity) is “prolong relaxation time”.
Consider “TGF-β1: TGFβ-1 growth factor (Peprotech)”, for which the cell death result in data set [2] is given as “significant cell death”. The “hCO function (force of contraction)” value in data set [1] (0, 1, 3 and 10 ng/ml, day 2-5, 2-7 and 2-9, H9-derived hCOs) is listed as “detrimental to hCO function”. For the same molecule, in data set [1] (prolonged presence within the maturation media), the contractile function entry was “compromised the contractile function”.
Consider `CCCCCCCCCCCCCCCC(=O)O` [palmitate, palmitic acid], for which the MLC2v expression result was “increased” in data set [3] (addition of palmitate, serum-free with insulin, relative to 5.5 mM glucose without palmitate) and “trend to increased MLC2v expression” in data set [3] (palmitate, absence of insulin). The “hCO force of contraction” value is “significantly higher forces” in data set [1] (100 μM palmitate, absence of insulin, 0.5, 1 and 5.5 mM glucose); “trend to increase” in data set [1] (addition of 10 μM and 100 μM palmitate, serum-free conditions with insulin, vs 0 μM palmitate). Also, the lactate dehydrogenase levels entry in data set [4] is given as “unaffected”.
With `Cc1c[nH]c(-c2cnc(NCCNc3ccc(C#N)cn3)nc2-c2ccc(Cl)cc2Cl)n1` [CHIR99021, reference compound], the “proliferating (Ki-67) hPSC-CMs (α-actinin)” value in data set [3] (hCOs cultured in MM, 24 h treatment) is listed as “blunted proliferative response”. Further, the “proliferation (α-actinin and Ki-67 staining)” value in data set [3] (hCOs, 5 μm CHIR vs 0.05% DMSO) is on record as “pro-proliferative effects”.
The EC50 is the concentration that produces a half-maximal response. On to `[Ca+2]` [calcium], for which the results for the EC50 in data set [5], in data set [1] (hCOs cultured in CTRL medium) and in data set [1] (hCOs cultured in MM) were 2.6 to 6 mM, 0.3 mM and 1 mM, respectively.
Consider “insulin: insulin, commonly used in serum-free medium supplements (B27 with insulin)”, for which the “activated β-catenin” value in data set [3] (48 h, regardless of glucose or palmitate) was “highly dependent on insulin”. The “re-activation of hPSC-CM proliferation (Ki-67)” value in data set [3] (addition of insulin after 11 days in MM) was “not sufficient to re-activate”. In data set [3] (serum-free conditions, 1 mM glucose and 10 μM palmitate), the “hPSC-CM proliferation (Ki-67 expression)” value is “inducing hPSC-CM proliferation”.
Take `CC(C)NCC(O)c1ccc(O)c(O)c1` (centres unmarked) [isoprenaline, reference compound]: the force of contraction result in data set [1] (hCOs cultured in MM, culture medium 1.8 mM Ca2+ (no increase in CTRL medium)) was “increase in the force of contraction”. Further, the rate of contraction entry in data set [1] (hCOs in both CTRL medium and MM) is “increased the rate of contraction”. In data set [1] (paced 1 Hz at the calcium EC50, both CTRL medium and MM hCO), the 50% contraction time result is recorded as “decreased 50% contraction time”.
